PMC8079060 (Drug Delivery, 2021)
“And” between values parts separate entries of the source, which are not always exact repeats. Equal values may be shown once.

Key:
[1] = Plasma pharmacokinetics after intravenous administration; settings: rats; for Tmax: i.v. NPPA-PTX NPs 6.04 mg kg^−1 (equimolar with 5.00 mg kg^−1 PTX) or Taxol 5.00 mg kg^−1; for Tmax / AUCINF_obs / AUClast / Cmax: plasma
Protocol: Post injection, ∼200 μL blood samples were drawn from the jugular vein at predetermined time points of 0.033, 0.083, 0.25, 0.5, 1, 2, 4, 6, 8, 12, and 24 h post-injection and centrifuged immediately at 3000 rpm for 10 min at 4 °C. […] 200 μL of deionized water was added into the 40 μL supernatants followed by vortexing for 1 min. Finally, the pharmacokinetic data analysis was performed via a liquid chromatography-tandem mass spectrometry (LC-MS/MS Applied Biosystems. Foster City, CA, USA) and pharmacokinetic parameters were acquired by Winnolin 7.0 software.

[2] = Tissue distribution in MDA-MB-231 tumor-bearing nude mice
Protocol: Mice were sacrificed and the tumors and main organs were harvested at 1, 4, 8, and 24 h after administration. Each tissue sample was homogenized in 1 mL acetonitrile and centrifugated.

HCT116 cells = test: cells; settings: Homo sapiens, HCT-116
Protocol: (§1) Dose-effect curves were constructed and IC50 values were calculated by GraphPad Prism6/SPSS Software.

MDA-MB-231 cells = test: cells; settings: Homo sapiens
Protocol: as §1

[3] = i.v. NPPA-PTX NPs 6.04 mg kg^−1 or Taxol 5.00 mg kg^−1, mean ± SEM, n = 3

SMILES | Tmax ([1]; mean ± SEM, n = 3) [min] | Cl_obs [1, 3] [L/h/kg] | HL_Lambda_z [1, 3] [h] | MRTlast [1, 3] [h] | Vz_obs (apparent distribution volume) [1, 3] | AUCINF_obs [1, 3] [µg·h/mL] | AUClast [1, 3] [µg·h/mL] | Cmax [1, 3] [µg/mL] | further results
CC(=O)OC1C(=O)C2(C)C(O)CC3OCC3(OC(C)=O)C2C(OC(=O)c2ccccc2)C2(O)CC(OC(=O)C(OC(=O)CCc3ccccc3[N+](=O)[O-])C(NC(=O)c3ccccc3)c3ccccc3)C(C)=C1C2(C)C (centres unmarked) [NPPA-PTX, 3-(2-nitrophenyl) propionic acid-paclitaxel] | 2 ± 0 | 1.99 ± 0.987 | 7.45 ± 0.915 | 2.91 ± 0.280 | 20,700 mL kg^−1 and 20,700 ± 9320 mL kg^−1 | 3.93 ± 2.71 | 3.81 ± 2.64 | 4.58 ± 2.14 | MRTINF_obs (mean residence time) [1, 3]: 3.90 ± 0.656 h; AUC tissue/plasma ([2]; Heart): 0.65; AUC tissue/plasma ([2]; Kidney): 0.79; AUC tissue/plasma ([2]; Liver): 3.17; AUC tissue/plasma ([2]; Lung): 0.55; AUC tissue/plasma ([2]; Spleen): 0.35; AUC tissue/plasma ([2]; plasma): 1.00; AUC tissue/plasma ([2]; tumor): 0.45
CC(=O)OC1C(=O)C2(C)C(O)CC3OCC3(OC(C)=O)C2C(OC(=O)c2ccccc2)C2(O)CC(OC(=O)C(O)C(NC(=O)c3ccccc3)c3ccccc3)C(C)=C1C2(C)C (centres unmarked) [PTX from Taxol] | 2 ± 0 | 1.17 ± 0.398 | 5.86 ± 1.24 | 2.50 ± 0.545 | 10,300 mL kg^−1 and 10,300 ± 5480 mL kg^−1 | 4.56 ± 1.31 | 4.48 ± 1.31 | 8.6 ± 2.5 | –
CC(=O)OC1C(=O)C2(C)C(O)CC3OCC3(OC(C)=O)C2C(OC(=O)c2ccccc2)C2(O)CC(OC(=O)C(O)C(NC(=O)c3ccccc3)c3ccccc3)C(C)=C1C2(C)C (centres unmarked) [PTX released from NPPA-PTX] | 2 ± 0 | 7.65 ± 2.05 | 9.53 ± 5.82 | 7.38 ± 0.817 | 93,700 ± 26,400 mL kg^−1 | 0.837 ± 0.264 | 0.695 ± 0.0996 | 0.099 ± 0.0292 | MRT compared to that of PTX from Taxol ([1]; i.v.): 4 fold; Vz_obs (apparent distribution volume) ([1]; i.v. NPPA-PTX NPs 6.04 mg kg^−1 or Taxol 5.00 mg kg^−1, mean ± SEM, n = 3, listed as released PTX from NPPA-PTX): 93,700 mL kg^−1; AUC0–24h in plasma compared with PTX from Taxol ([2]; plasma): lower values (about three tenths); AUC0–24h in tumor compared with PTX from Taxol ([2]; tumor): equivalent values
CC(=O)O[C@H]1C(=O)[C@@]2(C)[C@H]([C@H](OC(=O)c3ccccc3)[C@]3(O)C[C@H](OC(=O)[C@H](O)[C@@H](NC(=O)c4ccccc4)c4ccccc4)C(C)=C1C3(C)C)[C@]1(OC(C)=O)CO[C@@H]1C[C@@H]2O [PTX, paclitaxel] | – | – | – | – | – | – | – | – | IC50 (HCT116 cells): 0.3 ± 0.02 µM; IC50 (MDA-MB-231 cells): 0.063 ± 0.0033 µM
